Legend:
Target C [1] = assay: HiBiT protein abundance assay, Target C; type: cell-based, human; conditions: modified K562 cells
Outline: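 HiBiT knock-in K562-derived cells seeded at 10000/well and treated with 10-point 3-fold dilutions (top final 10 μM, ≤0.25% DMSO) for 24 h at 37 °C. Lytic HiBiT luminescence normalised to unmodified-cell and DMSO controls; IC50 from 4-parameter fit at 50% abundance.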

[2] = Transwell assay for membrane efflux and permeability; type: in vitro ADME, Canine; conditions: dog; MDCK-BCRP or MDCKII-MDR1 transwell, test compound 1 μM, 2 hours at 37° C.
Excerpt: Compounds described herein were screened for cell membrane permeability and efflux in a transwell assay using Madin-Darby Canine Kidney (MDCK) cells expressing Breast Cancer Resistance Protein (BCRP) or subclone MDCKII cells expressing Multidrug Resistance Protein 1 (MDR1).
MDCK-BCRP or MDCKII-MDR1 Cells: The Netherlands Cancer Institute, High Glucose Dulbecco's Modified Eagle's Medium (DMEM): Gibco/Thermo Fisher Scientific, Fetal Bovine Serum (FBS): Coming, Hank's Balanced Salt Solution (HBSS) and Trypsin/EDTA: Gibco/Thermo Fisher Scientific, HTS Transwell-96 Well Permeable Supports: Coming Corporation, Millicell Epithelial Volt-Ohm: Millipore, Cellometer® Vision: Nexcelom Bioscience LLC, Infinite 200 PRO microplate reader: Tecan, MTS2/4 orbital shaker: IKA Labortechnik, HEPES/Penicillin/Streptomycin: Solarbio.
MDCK-BCRP or MDCKII-MDR1 cells were seeded to each of the wells of the transwell plate at a density of 1.6×10^6 cells/mL and the plate was incubated for 4-8 days with medium changes every two days. To perform the drug transport assay, cell monolayers were first washed three times with pre-warmed HBSS and then incubated with gentle shaking (150 rpm) for 30 min at 37° C. Stock solutions of test compounds (e.g., exemplary compounds of Formulas (I), (II), and (III)) and control compounds (e.g., metoprolol, prazosin, and/or imatinib) were prepared in DMSO and adjusted to a working solution using HBSS. The final concentration of test compounds was 1 μM with DMSO; 0.5%. The plates were incubated at 37° C. for 2 hours.

MYB [3] = assay: HiBiT protein abundance assay, MYB; type: cell-based, human; conditions: modified K562 cells
Outline: (§1)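 HiBiT-tagged endogenous targets in K562 cells treated 24 h at 37° C. with 10-point 3-fold dilutions (top 10 μM, DMSO ≤0.25%). Luminescence read after lytic LgBiT detection; response normalised to unmodified-cell and DMSO controls, IC50 interpolated at 50% from four-parameter logistic fit.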

HTT [4] = assay: HiBiT protein abundance assay, HTT; type: cell-based, human; conditions: modified K562 cells
Outline: as §1

HTT [5] = assay: Splicing RT-qPCR assay, HTT mRNA canonical junction (CJ) and alternative junction (AJ); type: cell-based, human; conditions: Homo sapiens, gene panel, CJ qPCR, protocol of Example 142; read-out: HTT IC50 (decrease in CJ mRNA levels)
Outline: (§2)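 A673 or K562 cells were treated 24 h at 37 °C with an 11-point 3-fold dilution series (top 10 uM final, DMSO ≤0.25%). Lysates underwent one-step RT-qPCR for canonical (CJ) and alternative (AJ) junctions; Ct normalized to GAPDH, GUSB or PPIA and DMSO control via 2^(−ΔΔCt), expressed as percentage response.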

Target C [6] = assay: Splicing RT-qPCR panel, Target C canonical junction (CJ) mRNA; type: cell-based, human; conditions: Homo sapiens, gene panel, CJ qPCR, protocol of Example 142; read-out: Target C IC50 (decrease in CJ mRNA levels)
Outline: as §2

SMN2 = assay: Splicing RT-qPCR panel, SMN2 canonical junction (CJ) mRNA; type: cell-based, human; conditions: Homo sapiens, gene panel, CJ qPCR, protocol of Example 142; read-out: SMN2 IC50 (decrease in CJ mRNA levels)
Outline: as §2

MYB [7] = assay: Splicing RT-qPCR assay, MYB mRNA canonical junction (CJ) and alternative junction (AJ); type: cell-based, human; conditions: Homo sapiens, gene panel, CJ qPCR, protocol of Example 142; read-out: MYB IC50 (decrease in CJ mRNA levels)
Outline: as §2

[8] = Homo sapiens, K562, 24 h, Table 13A
[9] = Homo sapiens, K562, 24 h, Table 13B

| SMILES | IC50 (Target C [1]; Table 13A, 24 hours) | Papp at 2 h, 1 μM [2] | efflux ratio at 2 h, 1 μM [2] | IC50 (MYB [3]; Table 13A, 24 hours) | IC50 (HTT [4]; Table 13A, 24 hours) | IC50 (Target C [1]; [8]) | IC50 (MYB [3]; [8]) | IC50 (HTT [4]; [8]) | IC50 (HTT [5]) | IC50 (Target C [1]; [9]) | IC50 (Target C [6]) | IC50 (SMN2) | IC50 (MYB [7]) | IC50 (MYB [3]; [9]) | IC50 (HTT [4]; [9]) |
| --- | --- | --- | --- | --- | --- | --- | --- | --- | --- | --- | --- | --- | --- | --- | --- |
| CN(c1ccc(-c2cc(F)c(-c3cn[nH]c3)c3cn[nH]c23)nn1)[C@@H]1C[C@H]2CC[C@@H](C1)N2 [Compound 147] | < 100 nM | < 2 ×10⁻⁶ cm/s | > 5 | < 100 nM | < 100 nM | – | – | – | – | – | – | – | – | – | – |
| COc1cc(-c2ccc(-c3ccc(N(C)[C@@H]4C[C@H]5CC[C@@H](C4)N5)nn3)c3[nH]ncc23)ccn1 [Compound 385, (exo)-N-{6-[4-(2-methoxypyridin-4-yl)-1H-indazol-7-yl]pyridazin-3-yl}-N-methyl-8-azabicyclo[3.2.1]octan-3-amine] | – | < 2 ×10⁻⁶ cm/s | > 5 | – | – | – | – | – | – | – | – | – | – | – | – |
| CN(c1ccc(-c2ccc(-c3cnn(C)c3)c3cn[nH]c23)nn1)[C@@H]1C[C@H]2CC[C@@H](C1)N2 [Compound 386, (exo)-N-methyl-N-{6-[4-(1-methylpyrazol-4-yl)-1H-indazol-7-yl]pyridazin-3-yl}-8-azabicyclo[3.2.1]octan-3-amine] | – | < 2 ×10⁻⁶ cm/s | > 5 | – | – | < 100 nM | < 100 nM | < 100 nM | – | – | – | – | – | – | – |
| COc1nc(-c2ccc(OC3CC(C)(C)NC(C)(C)C3)nc2)ccc1-n1cccn1 [Compound 991] | – | – | – | – | – | – | – | – | > 10000 nM | 1000 to 10000 nM | > 10000 nM | > 10000 nM | > 10000 nM | > 10000 nM | 1000 to 10000 nM |
| COc1nc(-c2ccc(OC3CC(C)(C)NC(C)(C)C3)nc2)ccc1-c1cnn(C)n1 [Compound 992] | – | – | – | – | – | – | – | – | 1000 to 10000 nM | 1000 to 10000 nM | > 10000 nM | 1000 to 10000 nM | > 10000 nM | 1000 to 10000 nM | 100 to 1000 nM |
| COc1nc(-c2ccc(N(C)C3CC(C)(C)NC(C)(C)C3)nc2)ccc1-c1cn[nH]c1 [Compound 993] | – | – | – | – | – | – | – | – | < 100 nM | 100 to 1000 nM | 100 to 1000 nM | < 100 nM | 100 to 1000 nM | 100 to 1000 nM | < 100 nM |
| COc1nc(-c2ccc(N(C)C3CC(C)(C)NC(C)(C)C3)nc2)ccc1-c1cnn(C)c1 [Compound 994] | – | – | – | – | – | – | – | – | 100 to 1000 nM | 100 to 1000 nM | 100 to 1000 nM | 1000 to 10000 nM | 100 to 1000 nM | 1000 to 10000 nM | 100 to 1000 nM |
| COc1nc(-c2ccc(N(C)C3CC(C)(C)NC(C)(C)C3)nc2)ccc1-n1cccn1 [Compound 995] | – | – | – | – | – | – | – | – | 1000 to 10000 nM | 1000 to 10000 nM | > 10000 nM | 1000 to 10000 nM | > 10000 nM | 1000 to 10000 nM | 1000 to 10000 nM |
| COc1nc(-c2ccc(N(C)C3CC(C)(C)NC(C)(C)C3)nc2)ccc1-c1cnn(C)n1 [Compound 996] | – | – | – | – | – | – | – | – | 100 to 1000 nM | 100 to 1000 nM | 1000 to 10000 nM | 100 to 1000 nM | 1000 to 10000 nM | 1000 to 10000 nM | 100 to 1000 nM |
| COc1nc(-c2ncc(N(C)[C@@H]3C[C@H]4CC[C@@H](C3)N4)cn2)ccc1-c1cn[nH]c1 [Compound 997] | – | – | – | – | – | – | – | – | > 10000 nM | > 10000 nM | > 10000 nM | > 10000 nM | > 10000 nM | > 10000 nM | > 10000 nM |
| COc1nc(-c2ccc(N3CCC(NC4CC4)C3)nn2)ccc1-c1cn[nH]c1 (stereo not drawn) [Compound 998] | – | – | – | – | – | – | – | – | 100 to 1000 nM | 1000 to 10000 nM | > 10000 nM | 100 to 1000 nM | > 10000 nM | > 10000 nM | 100 to 1000 nM |
| COc1nc(-c2ccc(OC3CC(C)(C)NC(C)(C)C3)nn2)cnc1-c1cn[nH]c1 [Compound 999] | – | – | – | – | – | – | – | – | 1000 to 10000 nM | > 10000 nM | 1000 to 10000 nM | 100 to 1000 nM | 1000 to 10000 nM | 1000 to 10000 nM | 1000 to 10000 nM |

Reference: US20240368163A1, “COMPOUNDS AND METHODS FOR MODULATING SPLICING” (REMIX THERAPEUTICS INC., priority 2021, published 2024)
